Consider eight compounds from patent publication US20040086553A1, “Foods and beverages for whitening and orally administered whitening agents” (The Nisshin OilliO, Ltd., priority 2000, published 2004).

The test system of test [1] is B-16 melanoma cells. Briefly: Evaluation of melanin production-inhibitory function (degree of whiteness of cultured cells). As to Evaluation of Melanin Production-Inhibition (degree of whiteness of cells): key: ++: The degree of whiteness is higher than that observed for the positive control; +: The degree of whiteness is almost identical to that of the positive control; ±: The degree of whiteness is not higher than that observed for the positive control, but higher than that observed for control; −: The degree of whiteness is almost identical to that observed for the control. Type of test: cell-based. The text has this: The melanin production-inhibitory function of the 5-membered ring-containing triterpenes incorporated into the foods or beverages and orally administered whitening agents of the present invention can be determined by a test method, which makes use of cultured melanocytes. The term “melanocyte(s)” used herein means cells having an ability of producing melanin and when cultivating these cells in the usual manner, the cells are blackened due to the accumulation of melanin pigment thus produced. Contrary to this, if a substance having such a melanin production-inhibitory function is incorporated into this cultivation system, the melanin production is suppressed and the skin is relatively whitened. The melanin production-inhibitory function can likewise be evaluated on the basis of this degree of relative whitening.
A culture medium (2 mL/well) was dispensed to a 6-well plate, a predetermined amount of B-16 melanoma cells was inoculated into the culture medium in each well and the cells were cultured at 37° C. and 5% CO2 by allowing the culture medium to stand. On the next day, a solution of test sample (each 5-membered ring-containing triterpene to be evaluated) having a predetermined concentration was added to and mixed with the culture medium and the cultivation was continued. On the 5th day from the initiation of the cultivation, the culture medium was exchanged and the test sample solution was again added to each well. On the next day, the culture medium was removed from each well to thus recover the cells, followed by washing the cells with PBS (phosphate-buffered physiological saline) and evaluation of the desired function based on the degree of whiteness of the cells. In this connection, the melanin production-inhibitory effect was evaluated by comparing the resulting degree of whiteness with that observed when 450 ppm of vitamin C-magnesium phosphate having a known effect was added instead of the test sample solution (positive control) and that observed when any test sample was not added (control) according to the following criteria.
The evaluation criteria for the degree of whiteness of cells are as follows: […]

Test [2] has as its system deposition of melanin pigment on the skin induced by the UV light irradiation. Briefly: Animal test for the confirmation of whitening effect (UV-induced skin pigmentation, test feed). It counts as in vivo, Brown guinea pigs. The following applies: free ingestion, 4 weeks; for Evaluation Results CI: number of 7 animals ranked Conspicuous Imp.; for Evaluation Results MI: number of 7 animals ranked Medium Imp.; for Evaluation Results NC: number of 7 animals ranked No Change; for Evaluation Results SI: number of 7 animals ranked Slight Imp. The text has this:
More specifically, the whitening effect can be evaluated by removing a half of the hair on the back of each brown guinea pig, keeping these animals over 2 weeks while irradiating the hair-removed area with a UV lamp, dividing these guinea pigs into groups in such a manner that there is not any difference in the degree of the melanin pigmentation induced by the UN light irradiation, allowing the animals in each group to freely take a test food comprising a feed having a low vitamin C content to which a variety of triterpenes have been added and keeping these animals over additional 4 weeks to evaluate the degree of skin pigmentation while comparing the same with those observed for a control group and for a positive control group.
Brown guinea pigs (5-week-old male animals) were preliminarily kept for one week using a commercially available feed (CG-7 available from Nippon Kurea Company), a half of the hair on the back was removed and the hair-removed portion on the back was irradiated with light rays emitted from a UV lamp of 1.2 mW for 5 minutes on the 1st day and then with light rays emitted from a UV lamp of 1.0 mW for 5 minutes on the 2nd and 3rd days. Subsequently, these animals were kept over 2 weeks using a feed having a low vitamin C content (200.0 mg/kg feed), these guinea pigs were divided into 12 groups (comprising 7 animals each) in such a manner that there was not observed any difference in the degree of deposition of melanin pigment on the skin induced by the UV light irradiation between groups and then the animals were allowed to freely ingest each test feed comprising the feed having a low vitamin C content to which each triterpene had been added in an amount specified in the following Table 2. In this respect, however, the vitamin C-deficient feed per se was supplied to the control group and a vitamin C-supplemented feed was supplied to the positive control group. After 4 weeks from the supply of the test feed, the degree of the pigmentation of the skin was evaluated according to the following criteria.

Setting [3] is: Concentration 2 ppm, rank vs 450 ppm vitamin C-magnesium phosphate.
The mark [4] stands for this setting: Concentration 4 ppm, rank vs 450 ppm vitamin C-magnesium phosphate.
[5] abbreviates: Concentration 6 ppm, rank vs 450 ppm vitamin C-magnesium phosphate.
[6] abbreviates: Concentration 8 ppm, rank vs 450 ppm vitamin C-magnesium phosphate.
[7] abbreviates: Concentration 10 ppm, rank vs 450 ppm vitamin C-magnesium phosphate.
Where [8] appears, read: compared with 450 ppm of vitamin C-magnesium phosphate.

Structures are written as SMILES. Where two headings read alike, the source gives them in different places.

For `CC(=O)O[C@@H]1C[C@]2(C)[C@H]3CC=C4[C@@H]5CC(C)(C)CC[C@]5(C(=O)O)CC[C@@]4(C)[C@]3(C)CC[C@H]2C(C)(C)[C@H]1OC(C)=O` [Compound of Synthetic Example 2, 2,3-O-di-Acetyl-Maslinic Acid], the “Evaluation of Melanin Production-Inhibition (degree of whiteness of cells)” value in test [1] (setting [3]) is given as “±”; in test [1] (setting [4]), “±”; in test [1] (setting [5]), “+”; in test [1] (setting [6]), “++”; in test [1] (setting [7]), “++”; in test [1] (Concentration 15 ppm, rank vs 450 ppm vitamin C-magnesium phosphate), “++”. Also, the “melanin production-inhibitory function relative to that observed for the positive control/standard” value in test [1] (setting [8]) is listed as “about 75 times”. In test [2] (500.0 mg/kg feed), the “Evaluation Results CI” value stood at 2. Besides, the “Evaluation Results MI” value in test [2] (500.0 mg/kg feed) is 4. In test [2] (500.0 mg/kg feed), the “Evaluation Results NC” value amounted to 0. Further, the “Evaluation Results SI” value in test [2] (500.0 mg/kg feed) is listed as 1.

On to `C=C(C)[C@@H]1CC[C@]2(C(=O)O)CC[C@]3(C)[C@H](CC[C@@H]4[C@@]5(C)CC[C@H](O)C(C)(C)[C@@H]5CC[C@]43C)[C@@H]12` [Betulinic acid], for which the “Evaluation of Melanin Production-Inhibition (degree of whiteness of cells)” value in test [1] (setting [3]) was “−”. Further, the “Evaluation of Melanin Production-Inhibition (degree of whiteness of cells)” value in test [1] (setting [5]) is “±”. Further, the “Evaluation of Melanin Production-Inhibition (degree of whiteness of cells)” value in test [1] (setting [7]) is given as “+”. For the same compound, the “melanin production-inhibitory function relative to that observed for the positive control/standard” value in test [1] (setting [8]) is reported as “about 20 times”. In test [2] (500.0 mg/kg feed), the “Evaluation Results CI” value was 2, the “Evaluation Results MI” value was 4, the “Evaluation Results NC” value is recorded as 0 and the “Evaluation Results SI” value was 1.

For the compound `CC1(C)CC[C@]2(CO)CC[C@]3(C)C(=CC[C@@H]4[C@@]5(C)CC[C@H](O)C(C)(C)[C@@H]5CC[C@]43C)[C@@H]2C1` [Erythrodiol], the “Evaluation of Melanin Production-Inhibition (degree of whiteness of cells)” value in test [1] (setting [3]) was “±”; in test [1] (setting [5]) it was “±”; in test [1] (setting [7]) it was “±”; in test [1] (Concentration 25 ppm, rank vs 450 ppm vitamin C-magnesium phosphate), “+”; in test [1] (Concentration 50 ppm, rank vs 450 ppm vitamin C-magnesium phosphate), “+”. In addition, the “melanin production-inhibitory function relative to that observed for the positive control/standard” value in test [1] (setting [8]) was “about 20 times”. In addition, in test [2] (500.0 mg/kg feed), the “Evaluation Results CI” value came out at 2. Moreover, the “Evaluation Results MI” value in test [2] (500.0 mg/kg feed) was 2. Further, in test [2] (500.0 mg/kg feed), the “Evaluation Results NC” value was determined as 1. Moreover, the “Evaluation Results SI” value in test [2] (500.0 mg/kg feed) is given as 2.

Regarding `C=C(C)[C@@H]1CC[C@]2(CO)CC[C@]3(C)[C@H](CC[C@@H]4[C@@]5(C)CC[C@H](O)C(C)(C)[C@@H]5CC[C@]43C)[C@@H]12` [Betulin], the “Evaluation of Melanin Production-Inhibition (degree of whiteness of cells)” value in test [1] (setting [3]) was “−”. Besides, in test [1] (setting [5]), the “Evaluation of Melanin Production-Inhibition (degree of whiteness of cells)” value is listed as “±”. For the same compound, in test [1] (setting [7]), the “Evaluation of Melanin Production-Inhibition (degree of whiteness of cells)” value is recorded as “±”. In addition, the “melanin production-inhibitory function relative to that observed for the positive control/standard” value in test [1] (setting [8]) is on record as “about 40 times”. For the same compound, in test [2] (500.0 mg/kg feed), the “Evaluation Results CI” value was 1, the “Evaluation Results MI” value is on record as 3, the “Evaluation Results NC” value is listed as 1 and the “Evaluation Results SI” value turned out to be 2.

As to `CCOC(=O)[C@]12CCC(C)(C)C[C@H]1C1=CC[C@@H]3[C@@]4(C)C[C@@H](O)[C@H](O)C(C)(C)[C@@H]4CC[C@@]3(C)[C@]1(C)CC2` [Compound of Synthetic Example 1, Ethyl Maslinate], the “Evaluation of Melanin Production-Inhibition (degree of whiteness of cells)” value in test [1] (setting [3]) is reported as “±”; in test [1] (setting [4]) it was “+”; in test [1] (setting [5]), “++”; in test [1] (setting [6]) it was “++”; in test [1] (setting [7]), “++”. In test [1] (setting [8]), the “melanin production-inhibitory function relative to that observed for the positive control/standard” value is “about 110 times”. Moreover, the “Evaluation Results CI” value in test [2] (500.0 mg/kg feed) was 2. Besides, the “Evaluation Results MI” value in test [2] (500.0 mg/kg feed) is reported as 3. In addition, in test [2] (500.0 mg/kg feed), the “Evaluation Results NC” value came to 1. In addition, in test [2] (500.0 mg/kg feed), the “Evaluation Results SI” value was 1.

Turning to `CC1(C)CC[C@]2(C(=O)O)CC[C@]3(C)C(=CC[C@@H]4[C@@]5(C)C[C@@H](O)[C@H](O)C(C)(C)[C@@H]5CC[C@]43C)[C@@H]2C1` [Purified maslinic acid 2, maslinic acid], in test [1], the “Evaluation of Melanin Production-Inhibition (degree of whiteness of cells)” value is “± and + and ++”; the “melanin production-inhibitory function relative to that observed for the positive control/standard” value is recorded as “about 110 times”. In test [2] (500.0 mg/kg feed, 500 mg/kg), the “Evaluation Results CI” value was 3 and the “Evaluation Results SI” value is 1. In test [2] (500.0 mg/kg feed), the “Evaluation Results MI” value amounted to 3 and the “Evaluation Results NC” value came out at 0.

On to `CC1(C)CC[C@]2(C(=O)O)CC[C@]3(C)C(=CC[C@@H]4[C@@]5(C)C[C@@H](O)[C@H](O)C(C)(C)[C@@H]5CC[C@]43C)[C@@H]2C1` [Purified maslinic acid 1, maslinic acid], for which, in test [1], the “Evaluation of Melanin Production-Inhibition (degree of whiteness of cells)” value was “± and + and ++”; the “concentration at which the function is identical to that observed for 450 ppm of the positive control” value turned out to be 4 ppm; the “melanin production-inhibitory function relative to that observed for the positive control/standard” value is listed as “about 110 times”. In test [2] (250.0 mg/kg feed), the “Evaluation Results CI” value was determined as 2, the “Evaluation Results MI” value worked out at 3, the “Evaluation Results NC” value came to 0 and the “Evaluation Results SI” value was 2. Besides, in test [2] (500.0 mg/kg feed, 500 mg/kg), the “Evaluation Results CI” value amounted to 4 and the “Evaluation Results SI” value is recorded as 0. Besides, in test [2] (500.0 mg/kg feed), the “Evaluation Results MI” value is 3 and the “Evaluation Results NC” value was 0.

Regarding `C[C@H]1[C@H](C)CC[C@]2(C(=O)O)CC[C@]3(C)C(=CC[C@@H]4[C@@]5(C)CC[C@H](O)C(C)(C)[C@@H]5CC[C@]43C)[C@H]12` [Ursolic acid], the “Evaluation of Melanin Production-Inhibition (degree of whiteness of cells)” value is “±” in test [1] (setting [3]); “+” in test [1] (setting [4]); “++” in test [1] (setting [5]); “++” in test [1] (setting [6]); “++” in test [1] (setting [7]). Further, the “melanin production-inhibitory function relative to that observed for the positive control/standard” value in test [1] (setting [8]) is listed as “about 110 times”. Also, in test [2] (500.0 mg/kg feed), the “Evaluation Results CI” value is 4. Besides, in test [2] (500.0 mg/kg feed), the “Evaluation Results MI” value turned out to be 2. Also, the “Evaluation Results NC” value in test [2] (500.0 mg/kg feed) is listed as 0. Also, the “Evaluation Results SI” value in test [2] (500.0 mg/kg feed) was 1.
